For data set [1], the system named is white blood cell (WBC) count. As for the experimental part:
Nine patients were treated 50 mg/kg/day cyclophosphamide intravenously for four days (on Day-3 to Day 0).
On Day 6, (six days after completion of high-dose cyclophosphamide treatment), patients received G-CSF.

Data set [2] relates to patients with aggressive relapsing-remitting multiple sclerosis.
From the text: All 9 patients had aggressive relapsing-remitting multiple sclerosis, 8 of whom failed conventional therapy and 1 was untreated. Median age at time of entry was 29 years (range of 20 to 47 years). The mean number of gadolinium enhancing lesions on baseline MRI was 6.5 (range 3-11).

The structures appear in SMILES notation. Read-outs that look alike come from different tables or passages of the source.

On to `O=P1(N(CCCl)CCCl)NCCCO1` (stereo not shown) [cyclophosphamide], for which the “minimum WBC” value was found to be 70 in data set [1] (patient HiCy01), 6 in data set [1] (patient HiCy07) and 31 in data set [1] (patient HiCy14). Further, the “minimum WBC count” value in data set [1] (patient HiCy11) was determined as 24; in data set [1] (patient HiCy19), 50; in data set [1] (patients HiCy09 and HiCy15 (both)), 12. The molecule further showed a WBC count in data set [1] (patients HiCy05 and HiCy13, within two weeks of treatment) of 0. Moreover, in data set [2] (50 mg/kg/day i.v. for four days, 9 patients), the “reduction in disability (EDSS)” value is reported as 50%. Also, the “reduction in gadolinium enhancements” value in data set [2] (at 6 months, 50 mg/kg/day i.v. for four days, 9 patients) came out at 90%; in data set [2] (by 18 months, 50 mg/kg/day i.v. for four days, 9 patients), 94%. For the same molecule, in data set [2] (initial cohort of 9 patients with severe relapsing MS), the adverse outcomes was “no significant adverse outcomes”. Moreover, the “patients having no disability (EDSS score of 0)” value in data set [2] (of 9 patients) is reported as 3 patients. In data set [2] (of 9 patients), the “patients with EDSS score of 1” value came to 1 patient. Besides, in data set [2] (of 9 patients, started on conventional MS therapy at 18 months), the “patients with an exacerbation during follow-up” value is listed as “one”. The “gadolinium enhancing lesions (GEL) at subsequent follow-up visits” value in data set [2] (patient HiCy01) was “did not have any GEL”. Also, the “gadolinium enhancing lesions (GEL) at follow-up” value is on record as “no gadolinium enhancing lesions” in data set [2] (patients HiCy05 and HiCy13, up to 24 months follow-up); “always had GEL on every follow up” in data set [2] (patients HiCy11 and HiCy19 (HiCy19 only 6 months of follow-up)). For the same molecule, the “gadolinium enhancing lesions (GEL) on follow-up MRIs” value in data set [2] (patients HiCy07 and HiCy14, who first went to 0 GEL) is reported as “a single GEL”. Moreover, the “gadolinium enhancing lesions (GEL)” value in data set [2] (patients HiCy09 and HiCy15) is 0.

For the origin of these results see patent US20110097426A1, “Methods for Safe and Effective Treatment Using Oxazaphosphorine Drugs” (Accentia Biopharmaceuticals, Inc., priority 2007, published 2011).
